Patent US20100144755A1 (Glaxo Group Limited, priority 2006, published 2010)
Counter-ions that a name gives are not always drawn.
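Throughout, for IC50: IL-8 in cell-free supernatant quantified by sandwich ELISA, inhibition calculated against a compound-free control.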

The compounds below were run on TNF-stimulated IL8 production by human neutrophils (assay: TNF-stimulated IL-8 production from human neutrophils). Conditions: Neutrophil, TNF 100 ng/ml, about 20 hrs, bounds reflect the top concentration screened, for 202(c) and 120 a range over multiple runs with ends given as 'greater than'.
Type: cell-based
Method: TNF-Stimulated IL-8 Production from Human Neutrophils
The effect of test compounds on TNF-stimulated IL8 production by human neutrophils is measured as follows. Neutrophils are prepared from blood obtained from consenting donors, using standard methods. Blood is collected in heparinized syringes and layered over histopaque (30 ml/20 ml). Following centrifugation, the red cell pellet is resuspended in PBS and purified over a dextran gradient. […] Cells are added (0.5-1 ml) to 48 well plates already containing compound at 1000× final concentration in neat DMSO or 10% DMSO in RPMI1640 with 10% FBS. TNF (final concentration 100 ng/ml) is used as the stimulus. Cells incubated for approximately 20 hrs at 37° C., 5% CO2. Levels of IL-8 in the cell free supernatant are determined by sandwich ELISA, and inhibition relative to a control with DMPO but no compound is calculated.
Work on Cc1ccc(C(=O)O)cc1-c1nc(N2CCC(N3CCC(C)CC3)CC2)nc2c1ccc(=O)n2-c1c(F)cccc1F [163(b), 3-[8-(2,6-difluorophenyl)-2-(4-methyl-1,4′-bipiperidin-1′-yl)-7-oxo-7,8-dihydropyrido[2,3-d]pyrimidin-4-yl]-4-methylbenzoic acid] yielded an IC50 greater than 100 nM. CCN(CC)CCCNc1nc(-c2ccc(C(=O)NC3CC3)cc2)c2ccc(=O)n(-c3c(F)cccc3F)c2n1 [Example 190, N-cyclopropyl-4-[2-{[3-(diethylamino)propyl]amino}-8-(2,6-difluorophenyl)-7-oxo-7,8-dihydropyrido[2,3-d]pyrimidin-4-yl]benzamide] was tested, and the IC50 was greater than 30 nM. With Cc1ccc(NC(=O)c2cccs2)cc1-c1nc(NC2CCNCC2)nc2c1ccc(=O)n2-c1c(F)cccc1F [7(d), N-{3-[8-(2,6-difluorophenyl)-7-oxo-2-(4-piperidinylamino)-7,8-dihydropyrido[2,3-d]pyrimidin-4-yl]-4-methylphenyl}-2-thiophenecarboxamide] the IC50 was greater than 100 nM. Compound CCN(CC)CCCNc1nc(-c2ccc(C(=O)Nc3nccs3)cc2)c2ccc(=O)n(-c3c(F)cccc3F)c2n1 [Example 192, 4-[2-{[3-(diethylamino)propyl]amino}-8-(2,6-difluorophenyl)-7-oxo-7,8-dihydropyrido[2,3-d]pyrimidin-4-yl]-N-1,3-thiazol-2-ylbenzamide] has an IC50 greater than 100 nM. CCN(CC)CCCNc1nc(-c2cc(C(=O)N[C@@H](C)C(C)C)ccc2C)c2ccc(=O)n(-c3c(F)cccc3F)c2n1 [Example 131, 3-[2-{[3-(diethylamino)propyl]amino}-8-(2,6-difluorophenyl)-7-oxo-7,8-dihydropyrido[2,3-d]pyrimidin-4-yl]-N-[(1S)-1,2-dimethylpropyl]-4-methylbenzamide] gave an IC50 greater than 10 nM. CCN(CC)CCCNc1nc(-c2cccc(C(=O)NCC(C)C)c2C)c2ccc(=O)n(-c3c(F)cccc3F)c2n1 [Example 154, 3-[2-{[3-(diethylamino)propyl]amino}-8-(2,6-difluorophenyl)-7-oxo-7,8-dihydropyrido[2,3-d]pyrimidin-4-yl]-2-methyl-N-(2-methylpropyl)benzamide] was tested, and the IC50 was greater than 100 nM. Compound CCN(CC)CCCNc1nc(-c2cccc(C(=O)NCC#N)c2C)c2ccc(=O)n(-c3c(F)cccc3F)c2n1 [Example 156, N-(cyanomethyl)-3-[2-{[3-(diethylamino)propyl]amino}-8-(2,6-difluorophenyl)-7-oxo-7,8-dihydropyrido[2,3-d]pyrimidin-4-yl]-2-methylbenzamide] has an IC50 greater than 100 nM. With Cc1ccc(NC(=O)c2ccc(Cl)nc2)cc1-c1nc(NC2CC(C)(C)NC(C)(C)C2)nc2c1ccc(=O)n2-c1c(F)cccc1F [Example 16, 6-chloro-N-(3-{8-(2,6-difluorophenyl)-7-oxo-2-[(2,2,6,6-tetramethyl-4-piperidinyl)amino]-7,8-dihydropyrido[2,3-d]pyrimidin-4-yl}-4-methylphenyl]-3-pyridinecarboxamide] the IC50 was greater than 100 nM. Work on CCN(CC)CCCNc1nc(-c2cc(C(=O)O)ccc2C)c2ccc(=O)n(-c3c(F)cccc3F)c2n1 [118(a), 3-[2-{[3-(diethylamino)propyl]amino}-8-(2,6-difluorophenyl)-7-oxo-7,8-dihydropyrido[2,3-d]pyrimidin-4-yl]-4-methylbenzoic acid] yielded an IC50 greater than 100 nM. CCN(CC)CCCNc1nc(-c2cccc(C(=O)NC3CC3)c2C)c2ccc(=O)n(-c3c(F)cccc3F)c2n1 [Example 155, N-cyclopropyl-3-[2-{[3-(diethylamino)propyl]amino}-8-(2,6-difluorophenyl)-7-oxo-7,8-dihydropyrido[2,3-d]pyrimidin-4-yl]-2-methylbenzamide] showed an IC50 greater than 100 nM. Cc1ccc(NC(=O)c2cccs2)cc1-c1nc(NCc2ncc[nH]2)nc2c1ccc(=O)n2-c1c(F)cccc1F [Example 10, N-(3-{8-(2,6-difluorophenyl)-2-[(1H-imidazol-2-ylmethyl)amino]-7-oxo-7,8-dihydropyrido[2,3-d]pyrimidin-4-yl}-4-methylphenyl)-2-thiophenecarboxamide] was tested, and the IC50 was greater than 100 nM. Cc1ccc(C(=O)O)cc1-c1nc(NC(CO)CO)nc2c1ccc(=O)n2-c1c(F)cccc1F [80(a), 3-(8-(2,6-difluorophenyl)-2-{[2-hydroxy-1-(hydroxymethyl)-ethyl]amino}-7-oxo-7,8-dihydropyrido[2,3-d]pyrimidin-4-yl)-4-methylbenzoic acid] showed an IC50 greater than 100 nM. For Cc1ccc(NC(=O)c2ccc(Cl)nc2)cc1-c1nc(N2CCC(N)CC2)nc2c1ccc(=O)n2-c1c(F)cccc1F [Example 15, N-{3-[2-(4-amino-1-piperidinyl)-8-(2,6-difluorophenyl)-7-oxo-7,8-dihydropyrido[2,3-d]pyrimidin-4-yl]-4-methylphenyl}-6-chloro-3-pyridinecarboxamide], the IC50 was greater than 100 nM. CCCNC(=O)c1cccc(-c2nc(NCCCN(CC)CC)nc3c2ccc(=O)n3-c2c(F)cccc2F)c1C [Example 153, 3-[2-{[3-(diethylamino)propyl]amino}-8-(2,6-difluorophenyl)-7-oxo-7,8-dihydropyrido[2,3-d]pyrimidin-4-yl]-2-methyl-N-propylbenzamide] showed an IC50 greater than 100 nM. Work on Cc1ccc(NC(=O)c2cc[nH]n2)cc1-c1nc(NC(CO)CO)nc2c1ccc(=O)n2-c1c(F)cccc1F [Example 53, N-[3-8-(2,6-difluorophenyl-2-{[2-hydroxy-1-(hydroxymethyl)ethyl]amino}-7-oxo-7,8-dihydropyrido[2,3-d]pyrimidin-4-yl)-4-methylphenyl]-1H-pyrazole-3-carboxamide trifluoroacetate] yielded an IC50 greater than 100 nM. In the case of Cc1ccc(C(=O)NCc2ccccc2)cc1-c1nc([S+](C)[O-])nc2c1ccc(=O)n2-c1c(F)cccc1F (centres unmarked) [116(b), 3-[8-(2,6-difluorophenyl)-2-(methylsulfinyl)-7-oxo-7,8-dihydropyrido[2,3-d]pyrimidin-4-yl]-4-methyl-N-(phenylmethyl)benzamide], the IC50 is reported as greater than 100 nM. CCN(CC)CCCNc1nc(-c2cccc(C(=O)Nc3ccc(F)cc3)c2C)c2ccc(=O)n(-c3c(F)cccc3F)c2n1 [Example 152, 3-[2-{[3-(diethylamino)propyl]amino}-8-(2,6-difluorophenyl)-7-oxo-7,8-dihydropyrido[2,3-d]pyrimidin-4-yl]-N-(4-fluorophenyl)-2-methylbenzamide] gave an IC50 greater than 100 nM.

These compounds were tested on influx of neutrophils to the lung in LPS-challenged rats (assay: Rat LPS neutrophilia model). Conditions: LPS aerosol, intratracheal dosing, in at least one of the range of conditions tested, significance p<0.05.
Type: in vivo
Summary of the method: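 Compound given intratracheally (200 ul suspension or dry powder via microsprayer) to isoflurane-anesthetized rats 15 min–24 h before 15 min LPS aerosol (100 ug/ml). Lavage 4 h post-challenge; neutrophils from differential counts. % inhibition versus no-compound controls at a given concentration and pretreat time.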
In the case of Cc1ccc(C(=O)NCC2CC2)cc1-c1nc(N2CCC(N)CC2)nc2c1ccc(=O)n2-c1c(F)cccc1F [Example 27, 3-[2-(4-amino-1-piperidinyl)-8-(2,6-difluorophenyl)-7-oxo-7,8-dihydropyrido[2,3-d]pyrimidin-4-yl]-N-(cyclopropylmethyl)-4-methylbenzamide], the inhibition of neutrophilia is reported as “statistically significant inhibition”. In the case of CCN(CC)CCCNc1nc(-c2cc(C(=O)Nc3ccccc3)ccc2C)c2ccc(=O)n(-c3c(F)cccc3F)c2n1 [Example 147, 3-[2-{[3-(diethylamino)propyl]amino}-8-(2,6-difluorophenyl)-7-oxo-7,8-dihydropyrido[2,3-d]pyrimidin-4-yl]-4-methyl-N-phenylbenzamide], the inhibition of neutrophilia is reported as “statistically nonsignificant inhibition”. For CNCCNc1nc(-c2cc(C(=O)Nc3nccs3)ccc2C)c2ccc(=O)n(-c3c(F)cccc3F)c2n1 [Example 61, 3-(8-(2,6-difluorophenyl)-2-{[2-(methylamino)ethyl]amino}-7-oxo-7,8-dihydropyrido[2,3-d]pyrimidin-4-yl)-4-methyl-N-1,3-thiazol-2-ylbenzamide], the inhibition of neutrophilia was “statistically significant inhibition”. For CNCCNc1nc(-c2cc(C(=O)NCc3ccccc3)ccc2C)c2ccc(=O)n(-c3c(F)cccc3F)c2n1 [Example 59, 3-(8-(2,6-difluorophenyl)-2-{[2-(methylamino)ethyl]amino}-7-oxo-7,8-dihydropyrido[2,3-d]pyrimidin-4-yl)-4-methyl-N-(phenylmethyl)benzamide], the inhibition of neutrophilia was “statistically significant inhibition”. With CCN(CC)CCCNc1nc(-c2cc(C(=O)NCC(F)(F)F)ccc2C)c2ccc(=O)n(-c3c(F)cccc3F)c2n1 [Example 128, 3-[2-{[3-(diethylamino)propyl]amino}-8-(2,6-difluorophenyl)-7-oxo-7,8-dihydropyrido[2,3-d]pyrimidin-4-yl]-4-methyl-N-(2,2,2-trifluoroethyl)benzamide] the inhibition of neutrophilia was “inactive”. For Cc1ccc(C(=O)Nc2ccc(F)cc2)cc1-c1nc(N(C)CCN(C)C)nc2c1ccc(=O)n2-c1c(F)cccc1F [Example 99, 3-{8-(2,6-difluorophenyl)-2-[[2-(dimethylamino)ethyl](methyl)amino]-7-oxo-7,8-dihydropyrido[2,3-d]pyrimidin-4-yl}-N-(4-fluorophenyl)-4-methylbenzamide], the inhibition of neutrophilia was “statistically nonsignificant inhibition”. For Cc1ccc(C(=O)Nc2nccs2)cc1-c1nc(NCCNC(C)C)nc2c1ccc(=O)n2-c1c(F)cccc1F [Example 103, 3-[8-(2,6-difluorophenyl)-2-({2-[(1-methylethyl)amino]ethyl}amino)-7-oxo-7,8-dihydropyrido[2,3-d]pyrimidin-4-yl]-4-methyl-N-1,3-thiazol-2-ylbenzamide], the inhibition of neutrophilia was “statistically significant inhibition”. CCN(CC)CCCNc1nc(-c2cc(C(=O)NCC(C)C)ccc2C)c2ccc(=O)n(-c3c(F)cccc3F)c2n1 [Example 124, 3-[2-{[3-(diethylamino)propyl]amino}-8-(2,6-difluorophenyl)-7-oxo-7,8-dihydropyrido[2,3-d]pyrimidin-4-yl]-4-methyl-N-(2-methylpropyl)benzamide] was tested, and the inhibition of neutrophilia was “statistically significant inhibition”. In the case of Cc1ccc(C(=O)Nc2nccs2)cc1-c1nc(NCCCNC(C)(C)C)nc2c1ccc(=O)n2-c1c(F)cccc1F [Example 102, 3-[8-(2,6-difluorophenyl)-2-({3-[(1,1-dimethylethyl)amino]propyl}amino)-7-oxo-7,8-dihydropyrido[2,3-d]pyrimidin-4-yl]-4-methyl-N-1,3-thiazol-2-ylbenzamide], the inhibition of neutrophilia is reported as “statistically nonsignificant inhibition”.
